This is an account of results in patent US20100093722A1, “HETEROARYL AND PHENYL SUBSTITUTED THIENO[2,3-d]PYRIMIDINES AND THEIR USE AS ADENOSINE A2a RECEPTOR ANTAGONISTS” (priority 2008, published 2010).

Where only a bound is given, the exact number is not on record here.

By Ki is commonly meant a dissociation constant, usually derived from enzyme kinetics or from competition with a known ligand. Read a high Ki as a looser hold on the target.

Experiment [1] addresses T1, human adenosine A1 receptor (Homo sapiens, UniProt P30542).
T1 construct: expressed in transfected cells; host or cells: CHO-K1
T1 sequence (P30542 1-326): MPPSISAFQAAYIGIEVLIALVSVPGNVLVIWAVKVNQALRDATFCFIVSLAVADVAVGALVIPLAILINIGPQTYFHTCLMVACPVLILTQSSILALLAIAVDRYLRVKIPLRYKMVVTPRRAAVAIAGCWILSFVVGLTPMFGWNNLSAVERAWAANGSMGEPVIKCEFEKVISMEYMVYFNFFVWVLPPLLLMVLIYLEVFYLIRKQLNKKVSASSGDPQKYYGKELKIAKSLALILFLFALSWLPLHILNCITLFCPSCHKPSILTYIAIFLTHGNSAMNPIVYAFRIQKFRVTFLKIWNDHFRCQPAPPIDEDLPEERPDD
As to the kind of experiment: Adenosine A1 Receptor Functional Assay (A1GAL2). It is filed as cell-based. The settings on record: CHO-K1 cells overexpressing human A1, cAMP inducible beta-galactosidase reporter, 4 nM r-PIA/1 uM Forskolin challenge. As to the method: Adenosine A1 Receptor Functional Assay (A1GAL2)
To initiate the functional assay, cryopreserved CHO-K1 cells overexpressing the human adenosine A1 receptor and containing a cAMP inducible beta-galactosidase reporter gene were thawed, centrifuged, DMSO containing media removed, and then seeded with fresh culture media into clear 384-well tissue culture treated plates (BD #353961) at a concentration of 10K cells/well. Prior to assay, these plates were cultured for two days at 37+ C., 5% CO2, 90% Rh. On the day of the functional assay, culture media was removed and replaced with 45 uL assay medium (Hams/F-12 Modified (Mediatech #10-080CV) supplemented w/0.1% BSA). Test compounds were diluted and 11 point curves created at a 1000× concentration in 100% DMSO. Immediately after addition of assay media to the cell plates, 50 nL of the appropriate test compound antagonist or agonist control curves were added to cell plates using a Cartesian Hummingbird. Compound curves were allowed to incubate at room temperature on cell plates for approximately 15 minutes before addition of a 4 nM r-PIA (Sigma P4532)/1 uM Forskolin (Sigma F3917) agonist challenge (5 uL volume). A control curve of r-PIA in 1 uM Forskolin, a DMSO/Media control, and a single dose of Forskolin were also included on each plate. After additions, cell plates were allowed to incubate at 37° C., 5% CO2, 90% Rh for 5.5-6 hours. After incubation, media was removed, and cell plates were washed 1× 50 uL with DPBS w/o Ca & Mg (Mediatech 21-031-CV). Into dry wells, 20 uL of 1× Reporter Lysis Buffer (Promega E3971 (diluted in dH2O from 5× stock)) was added to each well and plates frozen at −20° C. overnight. For β-galactosidase enzyme calorimetric assay, plates were thawed out at room temperature and 20 μL 2× assay buffer (Promega) was added to each well. Color was allowed to develop at 37° C., 5% CO2, 90% Rh for 1-1.5 h or until reasonable signal appeared. The calorimetric reaction was stopped with the addition of 60 μL/well 1M sodium carbonate. Plates were counted at 405 nm on a SpectraMax Microplate Reader (Molecular Devices). Data was analyzed in Microsoft Excel and IC/EC50 curves were fit using a standardized macro.

In experiment [2] the target is T2, human adenosine A2a receptor (Homo sapiens, UniProt P29274).
T2 construct: expressed in transfected cells; host or cells: CHO-K1
T2 sequence (P29274 whole entry): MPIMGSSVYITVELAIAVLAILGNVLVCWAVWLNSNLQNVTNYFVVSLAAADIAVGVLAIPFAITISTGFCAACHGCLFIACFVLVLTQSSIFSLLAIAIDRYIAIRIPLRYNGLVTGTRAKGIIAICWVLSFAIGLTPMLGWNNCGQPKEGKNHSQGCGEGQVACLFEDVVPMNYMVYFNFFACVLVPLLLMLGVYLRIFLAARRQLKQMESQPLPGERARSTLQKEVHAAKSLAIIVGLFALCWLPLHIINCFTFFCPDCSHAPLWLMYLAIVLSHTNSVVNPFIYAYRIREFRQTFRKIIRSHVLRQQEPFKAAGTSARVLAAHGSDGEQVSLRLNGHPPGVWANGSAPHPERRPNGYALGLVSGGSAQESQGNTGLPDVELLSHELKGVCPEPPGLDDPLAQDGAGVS
Put plainly: Adenosine A2a Receptor Functional Assay (A2AGAL2). The settings on record: CHO-K1 cells overexpressing human A2a, cAMP inducible beta-galactosidase reporter, 15 nM NECA agonist challenge. It is filed as cell-based. As to the method:
Adenosine A2a Receptor Functional Assay (A2AGAL2)
To initiate the functional assay, cryopreserved CHO-K1 cells overexpressing the human adenosine A2a receptor and containing a cAMP inducible beta-galactosidase reporter gene were thawed, centrifuged, DMSO containing media removed, and then seeded with fresh culture media into clear 384-well tissue culture treated plates (BD #353961) at a concentration of 10K cells/well. Prior to assay, these plates were cultured for two days at 37° C., 5% CO2, 90% Rh. On the day of the functional assay, culture media was removed and replaced with 45 uL assay medium (Hams/F-12 Modified (Mediatech #10-080CV) supplemented w/0.1% BSA). Test compounds were diluted and 11 point curves created at a 1000× concentration in 100% DMSO. Immediately after addition of assay media to the cell plates, 50 nL of the appropriate test compound antagonist or agonist control curves were added to cell plates using a Cartesian Hummingbird. Compound curves were allowed to incubate at room temperature on cell plates for approximately 15 minutes before addition of a 15 nM NECA (Sigma E2387) agonist challenge (5 uL volume). A control curve of NECA, a DMSO/Media control, and a single dose of Forskolin (Sigma F3917) were also included on each plate. After additions, cell plates were allowed to incubate at 37° C., 5% CO2, 90% Rh for 5.5-6 hours. After incubation, media was removed, and cell plates were washed 1× 50 uL with DPBS w/o Ca & Mg (Mediatech 21-031-CV). Into dry wells, 20 uL of 1× Reporter Lysis Buffer (Promega E3971 (diluted in dH2O from 5× stock)) was added to each well and plates frozen at −20° C. overnight. For β-galactosidase enzyme calorimetric assay, plates were thawed out at room temperature and 20 μL 2× assay buffer (Promega) was added to each well. Color was allowed to develop at 37° C., 5% CO2, 90% Rh for 1-1.5 h or until reasonable signal appeared. The calorimetric reaction was stopped with the addition of 60 μL/well 1M sodium carbonate. Plates were counted at 405 nm on a SpectraMax Microplate Reader (Molecular Devices). Data was analyzed in Microsoft Excel and IC/EC50 curves were fit using a standardized macro.

`N#Cc1cccc(-c2nc(N)c3cc(CCc4ccccn4)sc3n2)c1` [Example 2, 3-[4-Amino-6-(2-pyridin-2-yl-ethyl)-thieno[2,3-d]pyrimidin-2-yl]-benzonitrile]: the Ki in experiment [1] turned out to be 468 nM; in experiment [2], 79.2 nM.
Regarding `Nc1nc(-c2ccccc2)nc2sc(Cc3ccc(Cl)nc3)cc12` [Example 3, 6-(6-Chloro-pyridin-3-ylmethyl)-2-phenyl-thieno[2,3-d]pyrimidin-4-ylamine], the Ki in experiment [1] is 438 nM; in experiment [2] it was 47.2 nM.
As to `COc1cccc(C(O)c2cc3c(N)nc(-c4cccc(C#N)c4)nc3s2)n1` (centres unmarked) [Example 11, 3-{4-Amino-6-[hydroxy-(6-methoxy-pyridin-2-yl)-methyl]-thieno[2,3-d]pyrimidin-2-yl}-benzonitrile], the Ki amounted to 153 nM in experiment [1] and 29.3 nM in experiment [2].
For `N#Cc1cccc(-c2nc(N)c3cc(C(O)c4ccc(N5CCCCC5)nc4)sc3n2)c1` (centres unmarked) [Example 12, 3-{4-Amino-6-[hydroxy-(3,4,5,6-tetrahydro-2H-[1,2′]bipyridinyl-5′-yl)-methyl]-thieno[2,3-d]pyrimidin-2-yl}-benzonitrile], the values for the Ki in experiment [1] and in experiment [2] were 1280 nM and 201 nM, respectively.
With `N#Cc1cccc(-c2nc(N)c3cc(C(O)c4cccnc4N4CCOCC4)sc3n2)c1` (centres unmarked) [Example 13, 3-{4-Amino-6-[hydroxy-(2-morpholin-4-yl-pyridin-3-yl)-methyl]-thieno[2,3-d]pyrimidin-2-yl}-benzonitrile], the Ki in experiment [1] was 445 nM; in experiment [2], 171 nM.
In the case of `N#Cc1cccc(-c2nc(N)c3cc(C(O)c4cccnc4N4CCCC4)sc3n2)c1` (centres unmarked) [Example 14, 3-{4-Amino-6-[hydroxy-(2-pyrrolidin-1-yl-pyridin-3-yl)-methyl]-thieno[2,3-d]pyrimidin-2-yl}-benzonitrile], the inhibition constant (Ki) is 1290 nM in experiment [1] and 1040 nM in experiment [2].
Regarding `Nc1nc(-c2ccccc2)nc2sc(Cc3ccccn3)cc12` [Example 16, 2-Phenyl-6-pyridin-2-ylmethyl-thieno[2,3-d]pyrimidin-4-ylamine], the results for the inhibition constant (Ki) in experiment [1] and in experiment [2] were 48.7 nM and 5.71 nM, respectively.
As for `N#Cc1cccc(-c2nc(N)c3cc(C(O)c4cccnc4N4CCCCC4)sc3n2)c1` (centres unmarked) [Example 17, 3-{4-Amino-6-[hydroxy-(3,4,5,6-tetrahydro-2H-[1,2′]bipyridinyl-3′-yl)-methyl]-thieno[2,3-d]pyrimidin-2-yl}-benzonitrile], the figures for the inhibitory constant (Ki) in experiment [1] and in experiment [2] were 277 nM and 32 nM, respectively.
Regarding `N#Cc1cccc(-c2nc(N)c3cc(Cc4cccnc4N4CCCCC4)sc3n2)c1` [Example 20, 3-[4-Amino-6-(3,4,5,6-tetrahydro-2H-[1,2′]bipyridinyl-3′-ylmethyl)-thieno[2,3-d]pyrimidin-2-yl]-benzonitrile], the results for the Ki in experiment [1] and in experiment [2] were 292 nM and 45.3 nM, respectively.
In the case of `N#Cc1cccc(-c2nc(N)c3cc(Cc4ccncc4Cl)sc3n2)c1` [Example 22, 3-[4-Amino-6-(3-chloro-pyridin-4-ylmethyl)-thieno[2,3-d]pyrimidin-2-yl]-benzonitrile], the Ki is above 610 nM in experiment [1] and 25.3 nM in experiment [2].
For the molecule `N#Cc1cccc(-c2nc(N)c3cc(Cc4cccnc4N4CCOCC4)sc3n2)c1` [Example 27, 3-[4-Amino-6-(2-morpholin-4-yl-pyridin-3-ylmethyl)-thieno[2,3-d]pyrimidin-2-yl]-benzonitrile], the results for the inhibitory constant (Ki) in experiment [1] and in experiment [2] were 592 nM and 39.8 nM, respectively.
In the case of `N#Cc1cccc(-c2nc(N)c3cc(C(O)c4ccncc4)sc3n2)c1` (centres unmarked) [Example 28, 3-[4-Amino-6-(hydroxy-pyridin-4-yl-methyl)-thieno[2,3-d]pyrimidin-2-yl]-benzonitrile], the Ki turned out to be 787 nM in experiment [1] and 87.5 nM in experiment [2].
As to `N#Cc1cccc(-c2nc(N)c3cc(C(O)c4cccnc4F)sc3n2)c1` (centres unmarked) [Example 29, 3-{4-Amino-6-[(2-fluoro-pyridin-3-yl)-hydroxy-methyl]-thieno[2,3-d]pyrimidin-2-yl}-benzonitrile], the Ki in experiment [1] came out at 145 nM; in experiment [2] it was 5.09 nM.
In the case of `N#Cc1cccc(-c2nc(N)c3cc(C(O)c4cccnc4)sc3n2)c1` (centres unmarked) [Example 31, 3-[4-Amino-6-(hydroxy-pyridin-3-yl-methyl)-thieno[2,3-d]pyrimidin-2-yl]-benzonitrile], the Ki in experiment [1] turned out to be 285 nM; in experiment [2] it was 16 nM.
On to `N#Cc1cccc(-c2nc(N)c3cc(Cc4cccnc4)sc3n2)c1` [Example 32, 3-(4-Amino-6-pyridin-3-ylmethyl-thieno[2,3-d]pyrimidin-2-yl)-benzonitrile], for which the Ki in experiment [1] amounted to 408 nM; in experiment [2], 17.6 nM.
`COc1ccc(C(O)c2cc3c(N)nc(-c4cccc(C#N)c4)nc3s2)cn1` (centres unmarked) [Example 36, 3-{4-Amino-6-[hydroxy-(6-methoxy-pyridin-3-yl)-methyl]-thieno[2,3-d]pyrimidin-2-yl}-benzonitrile]: the figures for the Ki in experiment [1] and in experiment [2] were 726 nM and 156 nM, respectively.
As to `COc1ccc(Cc2cc3c(N)nc(-c4cccc(C#N)c4)nc3s2)cn1` [Example 37, 3-[4-Amino-6-(6-methoxy-pyridin-3-ylmethyl)-thieno[2,3-d]pyrimidin-2-yl]-benzonitrile], the Ki in experiment [1] amounted to 507 nM; in experiment [2] it was 64.3 nM.
For `COc1ncccc1C(=O)c1cc2c(N)nc(-c3cccc(C#N)c3)nc2s1` [Example 39, 3-[4-Amino-6-(2-methoxy-pyridine-3-carbonyl)-thieno[2,3-d]pyrimidin-2-yl]-benzonitrile], the inhibition constant Ki was determined as 289 nM in experiment [1] and 53 nM in experiment [2].
Turning to `Nc1nc(-c2cccc(F)c2)nc2sc(Cc3ccc(Cl)nc3)cc12` [Example 40, 6-(6-Chloro-pyridin-3-ylmethyl)-2-(3-fluoro-phenyl)-thieno[2,3-d]pyrimidin-4-ylamine], the Ki in experiment [1] stood at 443 nM; in experiment [2], 442 nM.
